Laboratory results from PMC12483982, “MTS1 regulates rice plant architecture by mediating phosphoinositide metabolism” (Plant Biotechnology Journal, 2025).

Biological target: T1, NGR5 (GST-NGR5) (Oryza sativa, UniProt X5HYT8)
T1 construct: gene SMOS1; recombinant GST fusion from E. coli Rosetta (DE3), glutathione sepharose, GST tag kept; NT-647 NHS labelled
T1 sequence (X5HYT8 1-425): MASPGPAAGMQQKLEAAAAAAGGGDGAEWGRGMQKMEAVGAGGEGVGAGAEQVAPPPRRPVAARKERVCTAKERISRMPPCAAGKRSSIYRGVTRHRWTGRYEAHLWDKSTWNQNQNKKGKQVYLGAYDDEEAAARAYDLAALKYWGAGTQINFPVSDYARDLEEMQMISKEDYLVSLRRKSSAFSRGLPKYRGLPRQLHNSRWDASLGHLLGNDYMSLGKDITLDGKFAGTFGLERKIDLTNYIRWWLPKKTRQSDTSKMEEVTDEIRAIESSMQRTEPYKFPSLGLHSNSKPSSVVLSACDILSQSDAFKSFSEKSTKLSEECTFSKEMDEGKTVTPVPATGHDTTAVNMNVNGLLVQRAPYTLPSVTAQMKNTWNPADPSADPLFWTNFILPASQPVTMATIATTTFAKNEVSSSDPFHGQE
Test: microscale thermophoresis (NT.[…])
Format: binding
Details: NT-647 NHS-labelled GST-NGR5 10 nM; phosphate buffer with 0.005% Tween-20; 30 min; also seen in lipid-protein overlay

## phosphatidylinositol 4-phosphate [PI4P]
  Kd: 1.14 ± 0.6 µM
